Reference: the Kinase Knowledgebase extract (Sharma et al. 2016)

Biological target: EGFR (mouse) (UniProt P00533)
Settings: nih3t3 fibroblast

## Cc1c(CCC(=O)O)c[nH]c1/C=C1\C(=O)Nc2ccc(S(N)(=O)=O)cc21
  IC50: > 50 µM

## Cc1[nH]c(/C=C2\C(=O)Nc3ccc(Br)cc32)c(C)c1CCC(=O)O
  IC50: > 50 µM

## COc1ccccc1-c1ccc2c(c1)NC(=O)/C2=C\c1[nH]cc(CCC(=O)O)c1C
  IC50: 19.2 µM

## Cc1[nH]c(/C=C2\C(=O)Nc3ccc(C(=O)O)cc32)c(C)c1CCC(=O)O
  IC50: > 50 µM

## COc1cccc(-c2ccc3c(c2)NC(=O)/C3=C\c2[nH]cc(C)c2CCC(=O)O)c1
  IC50: 49.2 µM

## Cc1c(CCC(=O)O)c[nH]c1/C=C1\C(=O)Nc2cc(-c3ccccc3)ccc21
  IC50: 21.8 µM

## Cc1c[nH]c(/C=C2\C(=O)Nc3cccc(C)c32)c1CCC(=O)O
  IC50: 28.8 µM

## Cc1c[nH]c(/C=C2\C(=O)Nc3ccc(Br)cc32)c1CCC(=O)O
  IC50: > 50 µM

## Cc1c[nH]c(/C=C2\C(=O)Nc3ccccc32)c1CCC(=O)O
  IC50: > 50 µM

## COc1ccc2c(c1)NC(=O)/C2=C\c1[nH]cc(CCC(=O)O)c1C
  IC50: > 50 µM

## COc1cccc(-c2ccc3c(c2)NC(=O)/C3=C\c2[nH]c(C)c(CCC(=O)O)c2C)c1
  IC50: 24.1 µM

## Cc1[nH]c(/C=C2\C(=O)Nc3cc(-c4ccccc4)ccc32)c(C)c1CCC(=O)O
  IC50: 21.9 µM

## Cc1c(CCC(=O)O)c[nH]c1/C=C1\C(=O)Nc2ccc(C(=O)O)cc21
  IC50: > 50 µM

## Cc1c(CCC(=O)O)c[nH]c1/C=C1\C(=O)Nc2ccccc21
  IC50: > 50 µM

## CCOc1cccc(-c2ccc3c(c2)NC(=O)/C3=C\c2[nH]cc(C)c2CCC(=O)O)c1
  IC50: > 50 µM

## COc1ccc2c(c1)NC(=O)/C2=C\c1[nH]c(C)c(CCC(=O)O)c1C
  IC50: > 50 µM
